Measured values taken from patent US8614201B2 (Janssen Pharmaceutica NV, priority 2009, dated 2013).

The compounds below were run against Human TRPA1 (Homo sapiens, UniProt O75762) (assay: Assay 1: In vitro cellular testing of TRPA1 modulation (CHO-TREx, Fluo-3 calcium fluorescence, AITC agonist)). Settings: CHO-TREx cells expressing human TRPA1; Fluo-3 fluorescence (FLIPR/Tetra); agonist 15 μM allyl isothiocyanate (AITC); 30 minute antagonist incubation.
Assay type: cell-based
Design: expressed in transfected cells; host or cells: CHO-TREx cells (Invitrogen), vector pcDNA4/TO
How it was run: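 Antagonist potency is the 50% reduction of the AITC (15 μM) calcium response, Hill-fitted against no-antagonist and 10 μM ruthenium red controls. Fluo-3-loaded (4 μM) CHO-TREx cells with tetracycline-inducible human TRPA1 got compound in HEPES saline pH 7.4 for 30 min, usually from 10 μM in three-fold dilutions.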

Human TRPA1, sequence (O75762 whole entry): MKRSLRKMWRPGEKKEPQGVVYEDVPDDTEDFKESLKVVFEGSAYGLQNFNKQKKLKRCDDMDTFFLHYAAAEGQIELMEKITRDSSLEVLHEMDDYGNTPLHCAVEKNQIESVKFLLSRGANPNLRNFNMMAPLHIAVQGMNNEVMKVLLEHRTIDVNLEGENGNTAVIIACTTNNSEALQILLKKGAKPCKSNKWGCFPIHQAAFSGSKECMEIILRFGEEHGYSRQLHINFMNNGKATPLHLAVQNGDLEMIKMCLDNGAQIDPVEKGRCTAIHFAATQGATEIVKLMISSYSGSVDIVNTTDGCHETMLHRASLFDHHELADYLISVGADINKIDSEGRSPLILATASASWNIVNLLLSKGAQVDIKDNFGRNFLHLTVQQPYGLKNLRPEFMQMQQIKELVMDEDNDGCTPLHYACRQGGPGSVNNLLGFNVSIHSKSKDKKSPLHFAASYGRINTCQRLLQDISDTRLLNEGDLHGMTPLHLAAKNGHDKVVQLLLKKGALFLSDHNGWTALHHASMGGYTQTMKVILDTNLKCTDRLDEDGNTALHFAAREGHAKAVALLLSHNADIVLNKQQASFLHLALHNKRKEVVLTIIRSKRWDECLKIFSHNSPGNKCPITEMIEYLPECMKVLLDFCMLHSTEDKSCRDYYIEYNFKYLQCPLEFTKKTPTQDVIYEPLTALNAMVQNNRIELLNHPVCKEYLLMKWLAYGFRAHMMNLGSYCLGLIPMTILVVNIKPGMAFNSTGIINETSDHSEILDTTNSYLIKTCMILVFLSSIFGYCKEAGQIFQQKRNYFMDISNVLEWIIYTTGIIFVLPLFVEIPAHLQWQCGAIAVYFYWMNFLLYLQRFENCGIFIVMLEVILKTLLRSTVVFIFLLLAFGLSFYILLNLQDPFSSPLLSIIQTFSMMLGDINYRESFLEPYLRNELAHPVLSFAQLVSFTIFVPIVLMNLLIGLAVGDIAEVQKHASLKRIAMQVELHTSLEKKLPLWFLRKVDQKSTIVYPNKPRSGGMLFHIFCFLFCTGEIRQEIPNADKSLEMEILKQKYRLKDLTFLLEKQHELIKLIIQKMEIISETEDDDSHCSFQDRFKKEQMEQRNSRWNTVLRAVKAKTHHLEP

Point of comparison: `Cc1ccccc1S(=O)(=O)N1CCC[C@H]1C(=O)NCc1cc(-c2ccc(C(F)(F)F)cc2)ncn1` [Example 155, 1-(Toluene-2-sulfonyl)-pyrrolidine-2S-carboxylic acid [6-(4-trifluoromethylphenyl)-pyrimidin-4-ylmethyl]-amide], IC50 1020 nM. Against it:
- O=C(NCc1cc(-c2ccc(C(F)(F)F)cc2)ncn1)[C@@H]1CCCN1S(=O)(=O)c1ccc(OC(F)(F)F)cc1 [Example 149, 1-(4-Trifluoromethoxybenzenesulfonyl)-pyrrolidine-2S-carboxylic acid [6-(4-trifluoromethylphenyl)-pyrimidin-4-ylmethyl]-amide] — 3.6-fold higher, 3650 nM
- COc1ccc(S(=O)(=O)N2CCC[C@H]2C(=O)NCc2cc(-c3ccc(C(F)(F)F)cc3)ncn2)cc1 [Example 150, 1-(4-Methoxybenzenesulfonyl)-pyrrolidine-2S-carboxylic acid [6-(4-trifluoromethylphenyl)-pyrimidin-4-ylmethyl]-amide] — 2.7-fold lower, 383 nM
- O=C(NCc1cc(-c2ccc(C(F)(F)F)cc2)ncn1)[C@@H]1CCCN1S(=O)(=O)c1ccc(Cl)cc1 [Example 152, 1-(4-Chlorobenzenesulfonyl)-pyrrolidine-2S-carboxylic acid [6-(4-trifluoromethyl-Phenyl)-pyrimidin-4-ylmethyl]-amide] — 15-fold lower, 66 nM
- O=C(NCc1cc(-c2ccc(C(F)(F)F)cc2)ncn1)[C@@H]1CCCN1S(=O)(=O)c1ccccc1F [Example 153, 1-(2-Fluorobenzenesulfonyl)-pyrrolidine-2S-carboxylic acid [6-(4-trifluoromethylphenyl)-pyrimidin-4-ylmethyl]-amide] — 2.5-fold lower, 401 nM
- O=C(NCc1cc(-c2ccc(C(F)(F)F)cc2)ncn1)[C@@H]1CCCN1S(=O)(=O)c1cccc(F)c1 [Example 154, 1-(3-Fluorobenzenesulfonyl)-pyrrolidine-2S-carboxylic acid [6-(4-trifluoromethylphenyl)-pyrimidin-4-ylmethyl]-amide] — 23-fold lower, 44 nM
- Cc1cccc(S(=O)(=O)N2CCC[C@H]2C(=O)NCc2cc(-c3ccc(C(F)(F)F)cc3)ncn2)c1 [Example 156, 1-(Toluene-3-sulfonyl)-pyrrolidine-2S-carboxylic acid [6-(4-trifluoromethylphenyl)-pyrimidin-4-ylmethyl]-amide] — 2.6-fold lower, 388 nM
- O=C(NCc1cc(-c2ccc(C(F)(F)F)cc2)ncn1)[C@@H]1CCCN1S(=O)(=O)c1cccc(C(F)(F)F)c1 [Example 157, 1-(3-Trifluoromethylbenzenesulfonyl)-pyrrolidine-2S-carboxylic acid [6-(4-trifluoromethylphenyl)-pyrimidin-4-ylmethyl]-amide] — 4.6-fold higher, 4690 nM
- O=C(NCc1cc(-c2ccc(C(F)(F)F)cc2)ncn1)[C@@H]1CCCN1S(=O)(=O)c1ccc(C(F)(F)F)cc1 [Example 158, 1-(4-Trifluoromethylbenzenesulfonyl)-pyrrolidine-2S-carboxylic acid [6-(4-trifluoromethylphenyl)-pyrimidin-4-ylmethyl]-amide] — 1.7-fold lower, 587 nM
- N#Cc1ccc(S(=O)(=O)N2CCC[C@H]2C(=O)NCc2cc(-c3ccc(C(F)(F)F)cc3)ncn2)cc1 [Example 159, 1-(4-Cyanobenzenesulfonyl)-pyrrolidine-2S-carboxylic acid [6-(4-trifluoromethylphenyl)-pyrimidin-4-ylmethyl]-amide] — within 1.5-fold, 1090 nM
- O=C(NCc1cc(-c2ccc(C(F)(F)F)cc2)ncn1)[C@@H]1CCCN1S(=O)(=O)c1ccccc1 [Example 160, 1-Benzenesulfonylpyrrolidine-2S-carboxylic acid [6-(4-trifluoromethylphenyl)-pyrimidin-4-ylmethyl]-amide] — 13-fold lower, 77 nM
- Cc1ccc(S(=O)(=O)N2CCC[C@H]2C(=O)NCc2cc(-c3ccc(C(F)(F)F)cc3)ncn2)cc1 [Example 161, 1-(Toluene-4-sulfonyl)-pyrrolidine-2S-carboxylic acid [6-(4-trifluoromethylphenyl)-pyrimidin-4-ylmethyl]-amide] — 7.4-fold lower, 137 nM
- CC(=O)c1ccc(S(=O)(=O)N2CCC[C@H]2C(=O)NCc2cc(-c3ccc(C(F)(F)F)cc3)ncn2)cc1 [Example 162, 1-(4-Acetylbenzenesulfonyl)-pyrrolidine-2S-carboxylic acid [6-(4-trifluoromethylphenyl)-pyrimidin-4-ylmethyl]-amide] — 1.7-fold higher, 1700 nM
- O=C(NCc1cc(-c2ccc(C(F)(F)F)cc2)ncn1)[C@@H]1CCCN1S(=O)(=O)c1ccc([N+](=O)[O-])cc1 [Example 163, 1-(4-Nitrobenzenesulfonyl)-pyrrolidine-2S-carboxylic acid [6-(4-trifluoromethylphenyl)-pyrimidin-4-ylmethyl]-amide] — 73-fold lower, 14 nM
- O=C(NCc1cc(-c2ccc(C(F)(F)F)cc2)ncn1)[C@@H]1CCCN1S(=O)(=O)c1cc(Cl)c(Cl)s1 [Example 165, 1-(4,5-Dichlorothiophene-2-sulfonyl)-pyrrolidine-2S-carboxylic acid [6-(4-trifluoromethylphenyl)-pyrimidin-4-ylmethyl]-amide] — 93-fold lower, 11 nM
- O=C(NCc1cc(-c2ccc(C(F)(F)F)cc2)ncn1)[C@@H]1CCCN1S(=O)(=O)c1ccc(Cl)s1 [Example 166, 1-(5-Chlorothiophene-2-sulfonyl)-pyrrolidine-2S-carboxylic acid [6-(4-trifluoromethylphenyl)-pyrimidin-4-ylmethyl]-amide] — 73-fold lower, 14 nM
- O=C(NCc1cc(-c2ccc(C(F)(F)F)cc2)ncn1)[C@@H]1CCCN1S(=O)(=O)c1ccco1 [Example 167, 1-(Furan-2-sulfonyl)-pyrrolidine-2S-carboxylic acid [6-(4-trifluoromethylphenyl)-pyrimidin-4-ylmethyl]-amide] — 16-fold lower, 63 nM
- O=C(NCc1cc(-c2ccc(C(F)(F)F)cc2)ncn1)[C@@H]1CCCN1S(=O)(=O)c1cc(F)cc(F)c1 [Example 169, 1-(3,5-Difluorobenzenesulfonyl)-pyrrolidine-2S-carboxylic acid [6-(4-trifluoromethylphenyl)-pyrimidin-4-ylmethyl]-amide] — 20-fold lower, 51 nM
- O=C(NCc1cc(-c2ccc(C(F)(F)F)cc2)ncn1)[C@@H]1CCCN1S(=O)(=O)c1cccs1 [Example 170, 1-(Thiophene-2-sulfonyl)-pyrrolidine-2S-carboxylic acid [6-(4-trifluoromethylphenyl)-pyrimidin-4-ylmethyl]-amide] — 51-fold lower, 20 nM
- O=C(NCc1cccc(-c2ccc(Cl)cc2)c1)[C@@H]1CCCN1S(=O)(=O)c1ccc(F)cc1 [Example 171, 1-(4-Fluorobenzenesulfonyl)-pyrrolidine-2S-carboxylic acid (4′-chlorobiphenyl-3-ylmethyl)-amide] — 54-fold lower, 19 nM
- O=C(NCc1cc(-c2ccc(C(F)(F)F)cc2)ncn1)[C@@H]1CCCN1S(=O)(=O)c1ccsc1 [Example 172, 1-(Thiophene-3-sulfonyl)-pyrrolidine-2S-carboxylic acid [6-(4-trifluoromethyl-phenyl)-pyrimidin-4-ylmethyl]-amide] — 93-fold lower, 11 nM
- O=C(NCc1cc(-c2ccc(C(F)(F)F)cc2)ncn1)[C@@H]1CCCN1S(=O)(=O)c1cc(Cl)sc1Cl [Example 173, 1-(2,5-Dichlorothiophene-3-sulfonyl)-pyrrolidine-2S-carboxylic acid [6-(4-trifluoromethylphenyl)-pyrimidin-4-ylmethyl]-amide] — within 1.5-fold, 1150 nM
